Measurements as given in US9927437B2, “Treating neurodegenerative disease” (THE BRIGHAM AND WOMEN'S HOSPITAL, INC., priority 2013, dated 2018).
Entries after “also recorded” stand apart in the source; their conditions may differ.

How the values were obtained:
[1] = test system: EAE NOD mice; assay: EAE in NOD mice, progressive phase (clinical score, histopathology, body weight); format: in vivo
[2] = test system: Ly6C^high monocytes; assay: Monocytes migration assay (transwell, CCL-2); format: cell-based, mouse; conditions: 1 h pre-treatment, CCL-2 50 ng/ml, 3 h
From the text: FIGS. 4a-m. B4GALT6 regulates ccl2 transcriptional activity in astrocytes. (a) Murine ccl2 promoter. (b) Luciferase activity in 293T cells transfected with the ccl2 luciferase reporter plus one of the following constructs encoding IRF-1, p65 or an empty control vector (Empty). Results are relative to secreted alkaline phosphatase activity, presented as fold induction from empty vector. Data from three independent experiments, statistical analysis by Student's t-test. (c) ChIP analysis of the interaction of NF-κB, and IRF-1 with the ccl2 promoter in primary cultured astrocytes, pre-treated with PDMP and LacCer and activated with LPS/IFNγ (as in FIG. 3), 2 hours following LPS/IFNγ induction. (d-h) Recruitment of inflammatory monocytes (defined either as of CD11b^+ Ly6C^high or CD11b^+CD45^high cells) to the CNS of EAE NOD mice treated with PDMP or vehicle, as in (FIG. 1k), analyzed by flow cytometry and presented as cell frequency (e, g) and total cell numbers (f, h). Representative data of three independent experiments. […] (i) The frequency and number of CD11b^+ Ly6C^high monocytes as determined in the CNS 10 days after the i.c.v. injection of astrocytes-specific shRNA lentivirus as in (FIG. 3j). […] (j) monocytes were pre-treated for 1 h with PDMP, LacCer, both (LacCer+PDMP), or vehicle, and monocytes chemotaxis was measured using a transwell chamber system. […]

[3] = test system: primary mouse microglia; assay: Viability assay, microglia; format: cell-based; conditions: absence of astrocytes, LPS/IFNγ
From the text: FIGS. 5a-m. B4GALT6 in astrocytes regulates the activation of microglia and CNS-infiltrating monocytes. (a) Heatmap depicting mRNA expression, as determined by nCounter Nanostring analysis, in microglia from naïve or EAE NOD mice treated with PDMP or vehicle. Representative data of three independent experiments. Statistical analysis by Student's t-test. (b) qPCR analysis of ccl5, il1b, opn, nos2, cd40, and H2-Aa gene expression relative to Gapdh. (c, d) Mean normalized expression of genes associated with M1- or M2-phenotype in microglia (Table 3) (c) and Ly6C^high monocytes (d). Statistical analysis by Student's t-test. (e-h) primary microglia were pre-treated with PDMP, LacCer, or vehicle, followed by activation with LPS/IFNγ for 6 h or left un-treated (control) as in (FIG. 3a). mRNA expression was determined by nCounter Nanostring analysis (e, g), and microglial viability was determined (f, h). Representative data of five independent experiments. […] RNA was harvested from microglia treated in the absence [MG (pure)] or presence [MG (mixed)] of astrocytes and gene expression was analyzed by qPCR for the expression ccl2, ccl5 and nos2 relative to gapdh. […] Microglia were isolated as in (i), and microglial-nos2 expression was determined by qRT relative to gapdh and presented as in (i). […]

Compound | disease progression, axonal loss ([1]; NOD EAE, 20 mg/kg i.p. twice a day from day 40, lumbar spinal cord, Bielschowsky's silver stain) | disease progression, demyelination ([1]; NOD EAE, 20 mg/kg i.p. twice a day from day 40, lumbar spinal cord, Luxol fast blue) | disease progression, clinical score ([1]; NOD EAE, 20 mg/kg i.p. twice a day from day 40 after EAE induction) | monocyte migration in a CCL-2 gradient [2] | viability of cultured primary mouse microglia [3] | EAE disease clinical symptoms ([1]; NOD mice, 10 μg per mouse i.p. every 3 days from day 35 after EAE induction) | EAE disease progression ([1]; NOD EAE, i.c.v. 1×10^7 IU lentivirus at day 35)
CCCCCCCCCC(=O)N[C@H](CN1CCOCC1)[C@H](O)c1ccccc1 [PDMP, D-threo-1-phenyl-2-decanoylamino-3-morpholino-1-propanol] | suppression of disease progression | suppression of disease progression | suppression of disease progression | did not affect; also recorded: no significance effect | neither the viability nor the response of cultured primary mouse microglia to LPS/IFNγ was affected | – | –
lactosylceramide [LacCer] | – | – | – | did not affect; also recorded: no significance effect | neither the viability nor the response of cultured primary mouse microglia to LPS/IFNγ was affected | significant worsening of disease clinical symptoms | –
shB4galt6: lentivirus-delivered shRNA against b4galt6 (TRCN0000334278; SEQ ID NO:3) (guide CGATGGACTGAACAATTTATTCTCGAGAATAAATTGTTCAGTCCACG) | – | – | – | – | – | – | suppressed disease progression; also recorded: ameliorates disease severity
